From ChEMBL document CHEMBL1201862, “PubChem BioAssay data set” (2004)
Values belong to the compound of their own block, whether it stands above or below them. The source made the active and inactive calls.

How the values were obtained:
[1] = cytotoxicity in HEK-293T NF-kB-Luc cells, dose response, cytotoxicity control for B/T-cell NF-kB inhibitor project, cell-based, uHTS hits (AID 489019); type: functional;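 note: IC50 reflects cytotoxicity as loss of cell viability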
[2] = system: Jurkat; assay: antigen receptor-induced NF-kB inhibitors, dose response, Jurkat, luciferase reporter, luminescence, B- and T-cell (AID 489004); type: functional, cell-based; settings: Homo sapiens;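 note: NF-kB luciferase reporter Jurkat cells stimulated with PMA plus ionomycin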
[3] = target: CAAX prenyl protease 2 (Homo sapiens, UniProt Q9Y256); assay: human Rce1 protease inhibitors, dose response, biochemical, yeast membranes, quenched-peptide fluorescence, cherry-pick (AID 588849)
[4] = target: Trypsin (Sus scrofa, UniProt P00761); assay: porcine trypsin inhibitors, dose response, selectivity assay for Rce1 protease inhibitor project, biochemical, quenched peptide fluorescence, cherry-pick (AID 488789)
[5] = MC4R antagonists, dose response, counter-screen for LGR2 antagonist project, cell-based, plate reader, cherry pick (AID 743444); type: functional;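 note: transfected HEK 293 cells stimulated with alpha-MSH peptide; potency of inhibitors of the alpha-MSH evoked signal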
[6] = LGR2 antagonists, dose response, cell-based, HEK293, CRE-luciferase reporter, cherry pick, set 2 (AID 743343); type: functional;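 note: transfected cells were stimulated with diluted bursicon conditioned medium after compound addition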
[7] = target: Luciferin 4-monooxygenase (Photuris pensylvanica, UniProt Q27757); assay: firefly luciferase enzyme inhibitors, dose response, counter-screen for HSF-1 reporter inhibitor project, biochemical, Cell Titer Glo, luminescence, cherry-picks (AID 588847)
[8] = system: Escherichia coli; assay: microbe, parasite or virus in culture
[9] = target: Beta-adrenergic receptor kinase 1 (Homo sapiens, UniProt P25098); assay: GRK2 inhibitors displacing RNA aptamer, dose response, biochemical, flow cytometry beads, FAM-aptamer, powder set 1 (AID 588720)
[10] = target: T1, Carboxy-terminal domain RNA polymerase II polypeptide A small phosphatase 1 (Homo sapiens, UniProt Q9GZU7); assay: inhibitors of CTDSP1, concentration-response testing, biochemical assay, absorbance-based, actives from ultra-high-throughput screening (AID 540297); type: functional
T1 sequence (Q9GZU7 whole entry): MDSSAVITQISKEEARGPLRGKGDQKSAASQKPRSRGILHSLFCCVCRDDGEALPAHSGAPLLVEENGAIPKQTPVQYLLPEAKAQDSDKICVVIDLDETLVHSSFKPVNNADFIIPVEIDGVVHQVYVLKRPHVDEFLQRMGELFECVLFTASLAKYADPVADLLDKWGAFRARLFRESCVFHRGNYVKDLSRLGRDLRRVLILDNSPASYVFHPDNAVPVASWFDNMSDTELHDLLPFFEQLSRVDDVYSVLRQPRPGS

[11] = target: T2, Microphthalmia-associated transcription factor (Homo sapiens, UniProt O75030); assay: TRPM1 promoter luciferase signal decrease, dose response, MITF inhibitor project, cell-based, SK-MEL-5, cherry-picked, set 3 (AID 493073); type: functional
T2 sequence (O75030 whole entry): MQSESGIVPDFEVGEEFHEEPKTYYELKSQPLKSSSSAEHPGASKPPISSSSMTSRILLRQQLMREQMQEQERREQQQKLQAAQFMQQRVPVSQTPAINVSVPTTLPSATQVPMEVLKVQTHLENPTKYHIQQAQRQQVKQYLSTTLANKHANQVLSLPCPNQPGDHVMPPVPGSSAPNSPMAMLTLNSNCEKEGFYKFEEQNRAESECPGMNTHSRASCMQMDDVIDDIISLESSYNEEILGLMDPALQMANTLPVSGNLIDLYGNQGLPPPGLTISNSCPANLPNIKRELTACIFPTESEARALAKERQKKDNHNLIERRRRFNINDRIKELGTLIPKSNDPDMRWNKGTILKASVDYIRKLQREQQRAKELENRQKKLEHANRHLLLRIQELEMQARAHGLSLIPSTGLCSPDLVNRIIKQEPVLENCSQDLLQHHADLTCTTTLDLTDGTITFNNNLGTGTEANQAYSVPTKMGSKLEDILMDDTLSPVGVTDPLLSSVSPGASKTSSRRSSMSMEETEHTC

[12] = target: Paired box protein Pax-8 (Homo sapiens, UniProt Q06710); assay: inhibitors of PAX8-driven TPO luciferase reporter, dose response, RMG-I cells, cherry-pick (AID 687027); type: functional, cell-based;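 note: luciferase reporter driven by Pax8 target thyroperoxidase promoter measured by SteadyGlo luminescence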
[13] = system: A-375; assay: MITF: Counter assay: A375 proliferation Measured in Cell-Based System Using Plate Reader - 2084-03_Inhibitor_Dose_DryPowder_Activity. [Related pubchem assays (depositor defined):AID488944]; type: functional; settings: Homo sapiens
[14] = Luminescent dose response cell-based high throughput screening assay for inhibitors of the Janus kinase 2 mutant JAK2V617F. [Related pubchem assays: 1446 (Primary screen.), 1521 (Confirmation assay.), 1486 (Counter screen.)]; type: functional
[15] = target: T3, Caspase-6 (Homo sapiens, UniProt P55212); assay: human caspase-6 inhibitors, dose response, biochemical, VEID-R110 fluorescence, cherry-pick (AID 720632)
T3 sequence (P55212 whole entry): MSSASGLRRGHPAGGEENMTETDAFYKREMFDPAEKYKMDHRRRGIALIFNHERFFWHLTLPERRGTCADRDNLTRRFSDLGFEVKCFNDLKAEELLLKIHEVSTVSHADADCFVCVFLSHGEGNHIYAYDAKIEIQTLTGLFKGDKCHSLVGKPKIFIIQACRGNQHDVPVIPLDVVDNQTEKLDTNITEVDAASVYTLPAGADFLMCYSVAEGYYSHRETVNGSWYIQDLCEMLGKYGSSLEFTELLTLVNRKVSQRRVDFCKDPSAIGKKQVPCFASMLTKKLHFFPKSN

[16] = target: T4, Polyadenylate-binding protein 1 (Homo sapiens, UniProt P11940); assay: PABP1 MLLE–PAM2 interaction inhibitors, dose response, miRNA deadenylation inhibitor project, biochemical, fluorescence polarization, Cy5-PAM2 peptide, secondary (AID 602260); type: functional; settings: read-out: IC50_Mean
[17] = target: T5, Histone-lysine N-methyltransferase NSD2 (Homo sapiens, UniProt O96028); type: biochemical
T5 sequence (O96028 whole entry): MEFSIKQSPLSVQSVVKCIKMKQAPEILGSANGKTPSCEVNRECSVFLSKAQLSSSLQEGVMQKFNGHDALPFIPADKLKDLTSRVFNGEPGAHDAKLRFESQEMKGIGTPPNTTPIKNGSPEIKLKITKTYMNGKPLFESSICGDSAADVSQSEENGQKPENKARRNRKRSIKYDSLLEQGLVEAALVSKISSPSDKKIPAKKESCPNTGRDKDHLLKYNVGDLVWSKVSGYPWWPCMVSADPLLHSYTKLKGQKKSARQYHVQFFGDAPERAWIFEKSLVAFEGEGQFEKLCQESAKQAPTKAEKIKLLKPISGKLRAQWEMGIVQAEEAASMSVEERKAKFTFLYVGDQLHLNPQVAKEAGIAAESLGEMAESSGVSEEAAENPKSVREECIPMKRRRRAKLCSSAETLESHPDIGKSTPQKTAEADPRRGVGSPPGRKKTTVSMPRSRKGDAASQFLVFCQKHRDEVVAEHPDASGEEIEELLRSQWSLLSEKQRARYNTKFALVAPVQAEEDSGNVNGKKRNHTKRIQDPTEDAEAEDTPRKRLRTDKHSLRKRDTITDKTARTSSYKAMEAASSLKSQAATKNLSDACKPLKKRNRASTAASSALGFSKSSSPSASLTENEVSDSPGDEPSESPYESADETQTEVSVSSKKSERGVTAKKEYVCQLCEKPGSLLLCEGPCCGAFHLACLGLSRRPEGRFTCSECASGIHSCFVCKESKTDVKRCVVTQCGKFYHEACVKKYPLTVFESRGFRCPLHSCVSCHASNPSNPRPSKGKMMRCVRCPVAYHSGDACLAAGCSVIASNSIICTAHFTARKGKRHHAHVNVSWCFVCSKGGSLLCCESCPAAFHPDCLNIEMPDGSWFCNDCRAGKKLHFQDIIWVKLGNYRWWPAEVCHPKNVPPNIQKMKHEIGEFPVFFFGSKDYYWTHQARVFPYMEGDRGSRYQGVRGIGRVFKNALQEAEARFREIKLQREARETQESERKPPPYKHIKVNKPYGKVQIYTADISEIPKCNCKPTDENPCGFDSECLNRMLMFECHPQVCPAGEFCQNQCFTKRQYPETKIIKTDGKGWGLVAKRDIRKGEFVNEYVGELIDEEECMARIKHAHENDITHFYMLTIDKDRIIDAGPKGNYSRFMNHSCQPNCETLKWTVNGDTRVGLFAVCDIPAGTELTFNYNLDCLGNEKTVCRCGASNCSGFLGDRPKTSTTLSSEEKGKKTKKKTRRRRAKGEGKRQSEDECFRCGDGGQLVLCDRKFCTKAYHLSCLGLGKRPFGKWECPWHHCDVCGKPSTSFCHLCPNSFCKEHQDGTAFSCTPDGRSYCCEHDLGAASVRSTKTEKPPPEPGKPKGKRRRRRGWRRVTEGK

[18] = target: T6, Rac GTPase-activating protein 1 (Homo sapiens, UniProt Q9H0H5); assay: MgcRacGAP GTPase-activating activity inhibitors, confirmation, biochemical, ADP Hunter fluorescence, primary and confirmatory (AID 624330); type: functional
T6 sequence (Q9H0H5 whole entry): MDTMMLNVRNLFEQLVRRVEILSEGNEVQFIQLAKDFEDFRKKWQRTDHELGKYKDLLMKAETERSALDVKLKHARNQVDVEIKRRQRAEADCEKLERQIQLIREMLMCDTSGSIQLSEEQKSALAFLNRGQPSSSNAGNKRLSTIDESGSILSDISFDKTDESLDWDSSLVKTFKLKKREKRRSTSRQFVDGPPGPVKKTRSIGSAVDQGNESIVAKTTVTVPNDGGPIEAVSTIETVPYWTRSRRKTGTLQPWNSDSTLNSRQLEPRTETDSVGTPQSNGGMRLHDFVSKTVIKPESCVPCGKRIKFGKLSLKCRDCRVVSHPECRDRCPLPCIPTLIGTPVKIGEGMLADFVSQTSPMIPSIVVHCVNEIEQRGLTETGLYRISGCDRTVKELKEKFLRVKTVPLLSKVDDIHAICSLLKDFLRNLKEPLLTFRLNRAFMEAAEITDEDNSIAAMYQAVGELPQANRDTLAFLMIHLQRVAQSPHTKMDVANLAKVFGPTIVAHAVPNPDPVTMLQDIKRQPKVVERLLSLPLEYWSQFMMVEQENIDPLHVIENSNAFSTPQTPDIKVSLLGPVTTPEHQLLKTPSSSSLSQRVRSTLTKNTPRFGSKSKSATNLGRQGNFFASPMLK

[19] = target: Genome polyprotein (dengue virus type 2, UniProt P29990); assay: Dengue-2 NS5 methyltransferase inhibitors, primary screen, biochemical, confirmation dose response (AID 588689); type: functional
[20] = system: Vero; assay: Vero cell cytotoxicity, cytotoxicity control for flavivirus capping enzyme inhibitors (AID 588742); type: functional; settings: Chlorocebus sabaeus
[21] = target: T7, Protein skinhead-1 (Caenorhabditis elegans, UniProt P34707); type: functional
T7 sequence (P34707 whole entry): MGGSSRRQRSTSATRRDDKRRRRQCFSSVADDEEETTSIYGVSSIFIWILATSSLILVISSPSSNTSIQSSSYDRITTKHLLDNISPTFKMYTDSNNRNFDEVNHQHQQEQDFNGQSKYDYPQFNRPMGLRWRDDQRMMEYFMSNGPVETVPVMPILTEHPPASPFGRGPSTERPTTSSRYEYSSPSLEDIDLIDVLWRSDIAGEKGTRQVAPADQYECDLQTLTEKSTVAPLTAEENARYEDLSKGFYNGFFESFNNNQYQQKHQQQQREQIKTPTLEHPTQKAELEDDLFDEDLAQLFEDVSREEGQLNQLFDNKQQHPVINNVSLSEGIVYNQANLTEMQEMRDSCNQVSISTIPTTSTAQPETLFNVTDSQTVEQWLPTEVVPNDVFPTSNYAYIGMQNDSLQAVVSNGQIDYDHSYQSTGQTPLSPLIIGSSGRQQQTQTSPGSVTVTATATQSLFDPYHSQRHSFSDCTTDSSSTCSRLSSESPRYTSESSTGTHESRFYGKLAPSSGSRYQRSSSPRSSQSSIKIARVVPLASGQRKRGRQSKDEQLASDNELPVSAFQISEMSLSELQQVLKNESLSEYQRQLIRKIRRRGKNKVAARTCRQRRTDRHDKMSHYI

[22] = HeLa cell cytotoxicity, dose response, cytotoxicity control for MgcRacGAP inhibitor project (AID 624300); type: functional
[23] = target: Beta-arrestin-1 (Homo sapiens, UniProt P49407); assay: inhibitors of arrestin peptide binding to AP2, dose response, biochemical, cherry pick 1, beta2-adaptin appendage, flow cytometry (AID 588783); type: functional
[24] = target: T4, Polyadenylate-binding protein 1; assay: PABP1 MLLE–PAM2 binding inhibitor potency, dose response, biochemical, fluorescence polarization, FITC-PAM2 peptide (AID 602259); type: functional; settings: read-out: IC50_Mean
[25] = target: Voltage-gated inwardly rectifying potassium channel KCNH2 (Homo sapiens, UniProt Q12809); settings: Potency;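 note: confirmatory quantitative high-throughput screen measuring inhibition of hERG channel activity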
Sequence of Voltage-gated inwardly rectifying potassium channel KCNH2 (Q12809 whole entry): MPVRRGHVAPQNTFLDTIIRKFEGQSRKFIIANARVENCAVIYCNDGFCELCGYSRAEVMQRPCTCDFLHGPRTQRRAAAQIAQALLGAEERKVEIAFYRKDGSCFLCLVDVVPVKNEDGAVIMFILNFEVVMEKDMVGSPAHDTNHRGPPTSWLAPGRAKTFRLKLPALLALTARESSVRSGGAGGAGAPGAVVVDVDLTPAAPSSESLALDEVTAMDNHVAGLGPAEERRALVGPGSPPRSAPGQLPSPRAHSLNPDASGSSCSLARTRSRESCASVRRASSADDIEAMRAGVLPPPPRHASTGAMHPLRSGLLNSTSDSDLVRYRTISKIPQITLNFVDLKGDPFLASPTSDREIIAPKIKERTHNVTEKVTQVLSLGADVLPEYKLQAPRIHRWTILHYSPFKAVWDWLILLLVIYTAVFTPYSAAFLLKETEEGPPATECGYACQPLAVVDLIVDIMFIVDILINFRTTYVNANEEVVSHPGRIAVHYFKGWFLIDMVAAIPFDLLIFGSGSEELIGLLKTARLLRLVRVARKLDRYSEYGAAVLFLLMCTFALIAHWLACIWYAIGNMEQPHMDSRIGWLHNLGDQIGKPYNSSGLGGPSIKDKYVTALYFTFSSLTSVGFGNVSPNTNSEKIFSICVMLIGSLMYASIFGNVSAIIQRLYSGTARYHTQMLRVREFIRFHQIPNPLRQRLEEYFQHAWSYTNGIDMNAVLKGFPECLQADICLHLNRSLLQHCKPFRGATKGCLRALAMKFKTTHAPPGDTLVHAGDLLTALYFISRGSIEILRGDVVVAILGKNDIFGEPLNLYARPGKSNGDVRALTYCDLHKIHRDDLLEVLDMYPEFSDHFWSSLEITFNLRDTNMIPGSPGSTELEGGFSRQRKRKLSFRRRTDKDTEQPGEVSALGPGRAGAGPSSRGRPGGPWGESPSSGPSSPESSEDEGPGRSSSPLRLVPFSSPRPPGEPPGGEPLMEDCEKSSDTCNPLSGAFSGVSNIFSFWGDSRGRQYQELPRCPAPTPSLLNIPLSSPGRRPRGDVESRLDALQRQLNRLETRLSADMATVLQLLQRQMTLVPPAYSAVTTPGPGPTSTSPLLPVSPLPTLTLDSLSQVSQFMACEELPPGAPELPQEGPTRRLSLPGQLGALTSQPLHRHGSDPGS

T4 sequence (P11940 whole entry): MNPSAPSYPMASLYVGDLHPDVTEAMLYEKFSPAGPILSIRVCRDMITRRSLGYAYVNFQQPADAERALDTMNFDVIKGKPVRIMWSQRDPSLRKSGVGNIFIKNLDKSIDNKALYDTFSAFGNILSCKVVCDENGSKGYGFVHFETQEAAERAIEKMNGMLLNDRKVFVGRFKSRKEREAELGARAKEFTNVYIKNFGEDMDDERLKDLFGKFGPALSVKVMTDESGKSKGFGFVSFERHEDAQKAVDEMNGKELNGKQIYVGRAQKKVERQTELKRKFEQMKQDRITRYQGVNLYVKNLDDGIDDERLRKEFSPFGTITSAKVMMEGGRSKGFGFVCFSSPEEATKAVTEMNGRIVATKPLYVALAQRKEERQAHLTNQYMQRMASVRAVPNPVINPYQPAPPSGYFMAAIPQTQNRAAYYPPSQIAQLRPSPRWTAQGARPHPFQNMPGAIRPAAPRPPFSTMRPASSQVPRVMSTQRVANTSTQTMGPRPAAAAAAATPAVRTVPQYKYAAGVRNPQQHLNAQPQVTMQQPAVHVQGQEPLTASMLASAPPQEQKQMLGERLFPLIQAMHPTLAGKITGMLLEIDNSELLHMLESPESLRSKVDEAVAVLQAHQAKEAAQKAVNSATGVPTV
Sequence of Paired box protein Pax-8 (Q06710 whole entry): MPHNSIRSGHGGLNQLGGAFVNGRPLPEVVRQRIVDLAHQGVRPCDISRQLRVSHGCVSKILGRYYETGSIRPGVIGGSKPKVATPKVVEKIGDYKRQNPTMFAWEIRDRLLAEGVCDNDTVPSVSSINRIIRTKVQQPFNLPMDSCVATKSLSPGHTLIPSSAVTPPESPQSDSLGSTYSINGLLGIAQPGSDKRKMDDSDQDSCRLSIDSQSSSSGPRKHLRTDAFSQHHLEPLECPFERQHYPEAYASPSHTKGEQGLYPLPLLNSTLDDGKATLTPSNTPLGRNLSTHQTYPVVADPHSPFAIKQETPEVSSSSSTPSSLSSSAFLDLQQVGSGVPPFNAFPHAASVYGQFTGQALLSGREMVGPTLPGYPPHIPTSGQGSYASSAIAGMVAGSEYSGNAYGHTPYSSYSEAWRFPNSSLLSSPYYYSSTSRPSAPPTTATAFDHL
Sequence of Beta-adrenergic receptor kinase 1 (P25098 whole entry, the tested form may be a part): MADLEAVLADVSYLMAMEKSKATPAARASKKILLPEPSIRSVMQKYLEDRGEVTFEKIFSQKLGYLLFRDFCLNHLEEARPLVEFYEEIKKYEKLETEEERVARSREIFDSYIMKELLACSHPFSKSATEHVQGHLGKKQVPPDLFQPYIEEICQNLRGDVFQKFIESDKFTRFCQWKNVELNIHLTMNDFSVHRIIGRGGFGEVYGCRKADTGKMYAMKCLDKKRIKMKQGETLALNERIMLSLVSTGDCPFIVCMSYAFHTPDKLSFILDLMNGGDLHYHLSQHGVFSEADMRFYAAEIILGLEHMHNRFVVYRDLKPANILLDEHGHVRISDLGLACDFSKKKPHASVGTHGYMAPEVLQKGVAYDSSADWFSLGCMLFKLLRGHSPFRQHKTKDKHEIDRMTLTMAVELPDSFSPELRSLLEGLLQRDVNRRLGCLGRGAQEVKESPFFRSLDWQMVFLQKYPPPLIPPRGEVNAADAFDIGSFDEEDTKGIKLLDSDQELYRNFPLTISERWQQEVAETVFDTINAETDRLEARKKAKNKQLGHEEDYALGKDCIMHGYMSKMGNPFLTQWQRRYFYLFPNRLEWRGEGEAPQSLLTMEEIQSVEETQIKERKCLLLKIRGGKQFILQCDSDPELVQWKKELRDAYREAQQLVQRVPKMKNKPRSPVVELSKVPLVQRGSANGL
Sequence of Trypsin (P00761 whole entry): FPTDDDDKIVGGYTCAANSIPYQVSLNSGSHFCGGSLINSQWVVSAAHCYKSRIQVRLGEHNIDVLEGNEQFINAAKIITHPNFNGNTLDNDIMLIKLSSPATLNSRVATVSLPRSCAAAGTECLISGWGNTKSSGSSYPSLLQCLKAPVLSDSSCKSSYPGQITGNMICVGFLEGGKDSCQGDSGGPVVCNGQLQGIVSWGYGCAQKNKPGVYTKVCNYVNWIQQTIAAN
Sequence of CAAX prenyl protease 2 (Q9Y256 whole entry): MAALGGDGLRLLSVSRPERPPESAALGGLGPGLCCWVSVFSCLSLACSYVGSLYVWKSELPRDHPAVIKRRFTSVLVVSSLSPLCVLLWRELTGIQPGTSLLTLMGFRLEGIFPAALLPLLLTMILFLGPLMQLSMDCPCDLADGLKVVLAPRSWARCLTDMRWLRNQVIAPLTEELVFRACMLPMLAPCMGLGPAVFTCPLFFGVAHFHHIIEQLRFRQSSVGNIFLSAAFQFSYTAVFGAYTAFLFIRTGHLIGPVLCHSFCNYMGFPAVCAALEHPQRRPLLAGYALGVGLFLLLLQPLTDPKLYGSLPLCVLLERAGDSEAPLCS
Sequence of Beta-arrestin-1 (P49407 whole entry): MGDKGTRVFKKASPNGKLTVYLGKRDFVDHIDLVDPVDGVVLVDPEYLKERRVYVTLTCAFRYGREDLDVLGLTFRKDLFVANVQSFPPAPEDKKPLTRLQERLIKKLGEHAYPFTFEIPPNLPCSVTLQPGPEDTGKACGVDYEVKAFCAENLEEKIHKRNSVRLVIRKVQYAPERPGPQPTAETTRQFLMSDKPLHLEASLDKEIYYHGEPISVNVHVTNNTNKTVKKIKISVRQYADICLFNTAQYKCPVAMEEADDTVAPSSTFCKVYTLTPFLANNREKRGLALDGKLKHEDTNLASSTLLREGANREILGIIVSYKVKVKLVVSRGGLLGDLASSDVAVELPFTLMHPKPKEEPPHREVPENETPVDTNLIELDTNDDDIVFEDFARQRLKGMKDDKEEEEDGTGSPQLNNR
Sequence of Genome polyprotein (P29990 2492-3391 limits assumed): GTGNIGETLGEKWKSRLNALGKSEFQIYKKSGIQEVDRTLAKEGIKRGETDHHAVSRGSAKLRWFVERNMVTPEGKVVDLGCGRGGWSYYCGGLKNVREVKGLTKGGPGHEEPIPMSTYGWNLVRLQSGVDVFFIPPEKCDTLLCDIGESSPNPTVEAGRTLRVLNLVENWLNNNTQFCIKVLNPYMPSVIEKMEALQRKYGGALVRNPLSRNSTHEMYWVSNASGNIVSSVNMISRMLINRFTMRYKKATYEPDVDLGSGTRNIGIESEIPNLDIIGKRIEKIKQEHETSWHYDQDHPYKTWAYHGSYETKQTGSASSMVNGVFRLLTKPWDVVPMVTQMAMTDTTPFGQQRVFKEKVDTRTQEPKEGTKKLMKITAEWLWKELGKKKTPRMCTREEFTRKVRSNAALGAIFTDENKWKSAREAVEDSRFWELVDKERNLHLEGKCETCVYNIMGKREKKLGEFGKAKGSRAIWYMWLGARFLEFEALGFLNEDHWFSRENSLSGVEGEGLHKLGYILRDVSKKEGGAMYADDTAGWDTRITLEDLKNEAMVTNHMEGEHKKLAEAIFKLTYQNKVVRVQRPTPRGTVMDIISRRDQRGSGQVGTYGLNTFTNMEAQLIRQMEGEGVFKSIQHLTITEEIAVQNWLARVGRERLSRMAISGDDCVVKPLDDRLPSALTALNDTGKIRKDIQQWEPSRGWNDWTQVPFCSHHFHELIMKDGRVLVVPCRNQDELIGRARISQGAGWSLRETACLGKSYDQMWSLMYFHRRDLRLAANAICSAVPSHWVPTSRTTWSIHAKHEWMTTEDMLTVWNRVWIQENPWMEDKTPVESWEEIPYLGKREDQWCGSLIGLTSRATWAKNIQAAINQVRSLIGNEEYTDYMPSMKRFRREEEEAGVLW

SMILES: Cn1nc(CC(=O)Nc2ccc3c(c2)CCC3)c2ccccc2c1=O
IC50 [1]: > 80 µM (inactive)
IC50 [2]: > 80 µM (inactive)

AC50 [3]: > 100 µM (inactive)
AC50 [4]: 32.4 µM (active)
SMILES: CC(=O)NN1C(=O)c2ccccc2NC1c1ccoc1 (stereo unspecified)

SMILES: CCS(=O)(=O)N1Cc2ccccc2CC1C(=O)Nc1nc2ccccc2s1 (stereo unspecified)
AC50 [5]: 4.56 µM (active)
AC50 [6]: 4.13 µM (active)
AC50 [7]: 15.2 µM (active)

SMILES: COC(=O)c1ccc(Cl)cc1NC(=O)/C=C/c1ccc(C)o1
AC50 [8]: 83 µM (active)

EC50 [9]: 21.2 µM (active)
IC50 [10]: 22 µM (active)
SMILES: O=C(CCS(=O)(=O)c1ccc(Br)cc1)Nc1ccc(Br)cc1F

SMILES: Cc1ccc2nc(C)cc(Nc3ccc([N+](=O)[O-])cc3)c2c1
AC50 [11]: 5.88 µM (active)
AC50 [12]: 5.33 µM (active)
AC50 [13]: 24.7 µM (active)
IC50 [14]: 1.29 µM (active)

AC50 [15]: 0.343 µM (active)
IC50 [16]: > 66 µM (inactive)
AC50 [12]: 7.03 µM (active)
AC50 [17]: 7.21 µM (active)
IC50 [18]: 34.8 µM (active)
IC50 [19]: 5.11 µM (active)
IC50 [21]: 79.6 µM (inactive)
IC50 [23]: 7.46 µM (active)
IC50 [24]: 38.7 µM (inactive)
SMILES: O=C1C(Br)=C(N2CCN(CCOCCO)CC2)C(=O)c2c(O)ccc(O)c21
CC50 [20]: 8.58 µM (active)
CC50 [22]: 12.6 µM (active)

SMILES: C=CCN1CC[C@]23c4c5ccc(O)c4O[C@@H]2/C(=N/N=C2\CC[C@@]4(O)C6Cc7ccc(O)c8c7[C@@]4(CCN6CC=C)[C@@H]2O8)CC[C@@]3(O)C1C5
AC50 [25]: 20 µM (inconclusive)
